Measured values taken from publication PMC2715282 (Phytochemical analysis : PCA, 2009).

Target: 5-HT7 serotonin receptor (Homo sapiens, UniProt P34969)
Experiment: competitive radioligand binding versus [3H]LSD
Format: cell-based

Sequence of 5-HT7 serotonin receptor (P34969 whole entry): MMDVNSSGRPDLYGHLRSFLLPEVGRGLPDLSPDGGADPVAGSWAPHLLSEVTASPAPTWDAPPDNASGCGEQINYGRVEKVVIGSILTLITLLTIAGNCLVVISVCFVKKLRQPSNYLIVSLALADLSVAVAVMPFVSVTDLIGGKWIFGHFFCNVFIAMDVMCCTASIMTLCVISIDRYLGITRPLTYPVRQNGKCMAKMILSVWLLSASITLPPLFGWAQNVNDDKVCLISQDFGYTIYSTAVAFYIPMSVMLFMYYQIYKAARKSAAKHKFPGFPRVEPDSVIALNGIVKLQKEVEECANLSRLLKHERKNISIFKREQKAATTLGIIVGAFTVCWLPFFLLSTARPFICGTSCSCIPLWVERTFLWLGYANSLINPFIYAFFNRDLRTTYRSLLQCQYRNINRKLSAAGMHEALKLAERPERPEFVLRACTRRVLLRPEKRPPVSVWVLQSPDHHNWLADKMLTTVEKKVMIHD

IC50: 100 µM
Substance: cimicifugic acid KK [compound 4]
